Columns and labels:
galectin-1 = galectin-1 (Homo sapiens, UniProt P09382); experiment: Fluorescence anisotropy assay, affinity for galectin-1; format: binding; settings: compound as inhibitor of the interaction between galectin and a fluorescein tagged saccharide probe; read-out: Gal-1 Kd
Description: (§1) The affinity of Example 1-39 for galectins were determined by a fluorescence anisotropy assay where the compound was used as an inhibitor of the interaction between galectin and a fluorescein tagged saccharide probe as described Sarme, P., Kahl-Knutsson, B., Huflejt, M., Nilsson, U. J., and Leffler H. (2004) Fluorescence polarization as an analytical tool to evaluate galectin-ligand interactions. Anal. Biochem. 334: 36-47, (Sarme et al., 2004) and Monovalent interactions of Galectin-1 By Salomonsson, Emma; Larumbe, Amaia; Tejler, Johan; Tullberg, Erik; Rydberg, Hanna; Sundin, Anders; Khabut, Areej; Frejd, Torbjorn; Lobsanov, Yuri D.; Rini, James M.; et al, From Biochemistry (2010), 49(44), 9518-9532, (Salomonsson et al., 2010).

galectin-3 = galectin-3 (Homo sapiens, UniProt P17931); experiment: Fluorescence anisotropy assay, affinity for galectin-3; format: binding; settings: compound as inhibitor of the interaction between galectin and a fluorescein tagged saccharide probe; read-out: Gal-3 Kd
Sequence of galectin-3 (P17931 whole entry): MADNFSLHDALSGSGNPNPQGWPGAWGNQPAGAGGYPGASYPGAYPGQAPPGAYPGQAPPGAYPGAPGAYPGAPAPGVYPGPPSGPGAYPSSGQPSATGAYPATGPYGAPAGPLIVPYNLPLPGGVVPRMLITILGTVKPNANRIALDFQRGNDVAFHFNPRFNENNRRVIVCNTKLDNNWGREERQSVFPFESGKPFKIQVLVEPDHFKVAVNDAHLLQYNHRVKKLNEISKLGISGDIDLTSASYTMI
Description: as §1

Sequence of galectin-1 (P09382 whole entry): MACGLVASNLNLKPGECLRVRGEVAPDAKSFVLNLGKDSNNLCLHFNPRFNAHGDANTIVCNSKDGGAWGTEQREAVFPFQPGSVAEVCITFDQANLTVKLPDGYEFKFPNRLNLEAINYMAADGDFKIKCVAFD

Kd (galectin-1)	Kd (galectin-3)	SMILES
0.036 µM	0.45 µM	COC1C(n2cc(-c3nc(Cl)cs3)nn2)[C@@H](O)C(CO)O[C@H]1c1ccnn1-c1cc(Cl)ccc1C(F)(F)F (stereo partly drawn) [Example 1, 1-{5-{3-[4-(4-Chlorothiazol-2-yl)-1H-1,2,3-triazol-1-yl]-3-deoxy-2-O-methyl-β-D-galactopyranosyl}-1H-1,2-pyrazol-1-yl}-5-chloro-2-(trifluoromethyl)benzene]
0.17 µM	7.56 µM	COC1C(n2cc(-c3nccs3)nn2)[C@@H](O)C(CO)O[C@H]1c1ccnn1-c1cc(Cl)ccc1C(F)(F)F (stereo partly drawn) [Example 2, 5-Chloro-1-{5-{3-deoxy-2-O-methyl-3-[4-(2-thiazolyl)-1H-1,2,3-triazol-1-yl]-β-D-galactopyranosyl}-1H-1,2-pyrazol-1-yl}-2-(trifluoromethyl)benzene]
0.47 µM	0.44 µM	COC1C(n2cc(-c3ncc(C)s3)nn2)[C@@H](O)C(CO)O[C@H]1c1ccnn1-c1cc(Cl)ccc1C(F)(F)F (stereo partly drawn) [Example 3, 5-Chloro-1-{5-{3-deoxy-3-[4-(5-methylthiazol-2-yl)-1H-1,2,3-triazol-1-yl]-2-O-methyl-β-D-galactopyranosyl}-1H-1,2-pyrazol-1-yl}-2-(trifluoromethyl)benzene]
0.26 µM	3.26 µM	COC1C(n2cc(-c3nc(C)cs3)nn2)[C@@H](O)C(CO)O[C@H]1c1ccnn1-c1cc(Cl)ccc1C(F)(F)F (stereo partly drawn) [Example 4, 5-Chloro-1-{5-{3-deoxy-3-[4-(4-methylthiazol-2-yl)-1H-1,2,3-triazol-1-yl]-2-O-methyl-β-D-galactopyranosyl}-1H-1,2-pyrazol-1-yl}-2-(trifluoromethyl)benzene]
0.21 µM	4.83 µM	OCC1O[C@@H](c2ccnn2-c2cc(Cl)ccc2C(F)(F)F)C(O)C(n2cc(-c3nccs3)nn2)[C@H]1O (stereo partly drawn) [Example 5, 5-Chloro-1-{5-{3-deoxy-3-[4-(2-thiazolyl)-1H-1,2,3-triazol-1-yl]-β-D-galactopyranosyl}-1H-1,2-pyrazol-1-yl}-2-(trifluoromethyl)benzene]
0.12 µM	10.8 µM	Nc1nc(-c2cn(C3C(O)[C@H](c4ccnn4-c4cc(Cl)ccc4C(F)(F)F)OC(CO)[C@@H]3O)nn2)cs1 (stereo partly drawn) [Example 6, 1-{5-{3-[4-(2-Aminothiazol-4-yl)-1H-1,2,3-triazol-1-yl]-3-deoxy-β-D-galactopyranosyl}-1H-1,2-pyrazol-1-yl}-5-chloro-2-(trifluoromethyl)benzene]
0.029 µM	5.83 µM	OCC1O[C@@H](c2ccnn2-c2cc(Cl)ccc2C(F)(F)F)C(O)C(n2cc(-c3csc(O)n3)nn2)[C@H]1O (stereo partly drawn) [Example 7, 5-Chloro-1-{5-{3-deoxy-3-[4-(2-hydroxythiazol-4-yl)-1H-1,2,3-triazol-1-yl]-β-D-galactopyranosyl}-1H-1,2-pyrazol-1-yl}-2-(trifluoromethyl)benzene]
0.27 µM	0.88 µM	OCC1O[C@@H](c2ccnn2-c2cc(Cl)ccc2C(F)(F)F)C(O)C(n2cc(-n3ccc(Cl)n3)nn2)[C@H]1O (stereo partly drawn) [Example 8, 1-{5-{3-[4-(3-Chloro-1H-1,2-pyrazol-1-yl)-1H-1,2,3-triazol-1-yl]-3-deoxy-β-D-galactopyranosyl}-1H-1,2-pyrazol-1-yl}-5-chloro-2-(trifluoromethyl)benzene]
0.037 µM	0.37 µM	Cc1cc([C@@H]2OC(CO)[C@H](O)C(n3cc(-c4nc(Cl)cs4)nn3)C2O)n(-c2cc(Cl)ccc2C(F)(F)F)n1 (stereo partly drawn) [Example 9, 1-{5-{3-[4-(4-Chlorothiazol-2-yl)-1H-1,2,3-triazol-1-yl]-3-deoxy-β-D-galactopyranosyl}-3-methyl-1H-1,2-pyrazol-1-yl}-5-chloro-2-(trifluoromethyl)benzene]
0.043 µM	0.33 µM	OCC1O[C@@H](c2ccnn2-c2cc(Cl)ccc2C(F)(F)F)C(O)C(n2cc(-c3ncc(Cl)s3)nn2)[C@H]1O (stereo partly drawn) [Example 10, 1-{5-{3-[4-(5-Chlorothiazol-2-yl)-1H-1,2,3-triazol-1-yl]-3-deoxy-β-D-galactopyranosyl}-1H-1,2-pyrazol-1-yl}-5-chloro-2-(trifluoromethyl)benzene]
0.048 µM	0.43 µM	OCC1O[C@@H](c2ccnn2-c2cc(Cl)ccc2C(F)(F)F)C(O)C(n2cc(-c3nc(Cl)cs3)nn2)[C@H]1O (stereo partly drawn) [Example 11, 1-{5-{3-[4-(4-Chlorothiazol-2-yl)-1H-1,2,3-triazol-1-yl]-3-deoxy-β-D-galactopyranosyl}-1H-1,2-pyrazol-1-yl}-5-chloro-2-(trifluoromethyl)benzene]
0.024 µM	0.39 µM	COC1C(n2cc(-c3ncc(Cl)s3)nn2)[C@@H](O)C(CO)O[C@H]1c1ccnn1-c1cc(Cl)ccc1C(F)(F)F (stereo partly drawn) [Example 12, 1-{5-{3-[4-(5-Chlorothiazol-2-yl)-1H-1,2,3-triazol-1-yl]-3-deoxy-2-O-methyl-β-D-galactopyranosyl}-1H-1,2-pyrazol-1-yl}-5-chloro-2-(trifluoromethyl)benzene]
0.036 µM	0.29 µM	COC1C(n2cc(-c3nc(Cl)cs3)nn2)[C@@H](O)C(CO)O[C@H]1c1cc(C)nn1-c1cc(Cl)ccc1C(F)(F)F (stereo partly drawn) [Example 13, 1-{5-{3-[4-(4-Chlorothiazol-2-yl)-1H-1,2,3-triazol-1-yl]-3-deoxy-2-O-methyl-β-D-galactopyranosyl}-3-methyl-1H-1,2-pyrazol-1-yl}-5-chloro-2-(trifluoromethyl)benzene]
0.15 µM	5.2 µM	COC1C(n2cc(-c3nccs3)nn2)[C@@H](O)C(CO)O[C@H]1c1cc(C)nn1-c1cc(Cl)ccc1C(F)(F)F (stereo partly drawn) [Example 14, 5-Chloro-1-{5-{3-deoxy-2-O-methyl-3-[4-(2-thiazolyl)-1H-1,2,3-triazol-1-yl]-β-D-galactopyranosyl}-3-methyl-1H-1,2-pyrazol-1-yl}-2-(trifluoromethyl)benzene]
0.067 µM	2 µM	COC1C(n2cc(-c3nc(Cl)cs3)nn2)[C@@H](O)C(CO)O[C@H]1c1cc(C)nn1-c1ccc2nc(C)sc2c1 (stereo partly drawn) [Example 15, 1-{5-{3-[4-(4-Chlorothiazol-2-yl)-1H-1,2,3-triazol-1-yl]-3-deoxy-2-O-methyl-β-D-galactopyranosyl}-3-methyl-1H-1,2-pyrazol-1-yl}-2-methylbenzothiazole]
0.038 µM	1.5 µM	COC1C(n2cc(-c3nc(Cl)cs3)nn2)[C@@H](O)C(CO)O[C@H]1c1ccnn1-c1ccc2nc(C)sc2c1 (stereo partly drawn) [Example 16, 1-{5-{3-[4-(4-Chlorothiazol-2-yl)-1H-1,2,3-triazol-1-yl]-3-deoxy-2-O-methyl-β-D-galactopyranosyl}-1H-1,2-pyrazol-1-yl}-2-methylbenzothiazole]
0.24 µM	0.88 µM	CCOC(=O)c1cc([C@@H]2OC(CO)[C@H](O)C(n3cc(-c4nc(Cl)cs4)nn3)C2OC)n(-c2cc(Cl)ccc2C(F)(F)F)n1 (stereo partly drawn) [Example 17, 1-{5-{3-[4-(4-Chlorothiazol-2-yl)-1H-1,2,3-triazol-1-yl]-3-deoxy-2-O-methyl-β-D-galactopyranosyl}-3-ethoxycarbonyl-1H-1,2-pyrazol-1-yl}-5-chloro-2-(trifluoromethyl)benzene]
0.42 µM	0.32 µM	COC1C(n2cc(-c3nc(Cl)cs3)nn2)[C@@H](O)C(CO)O[C@H]1c1cc(C(=O)O)nn1-c1cc(Cl)ccc1C(F)(F)F (stereo partly drawn) [Example 18, 1-{3-Carboxy-5-{3-[4-(4-chlorothiazol-2-yl)-1H-1,2,3-triazol-1-yl]-3-deoxy-2-O-methyl-β-D-galactopyranosyl}-1H-1,2-pyrazol-1-yl}-5-chloro-2-(trifluoromethyl)benzene]
0.043 µM	0.28 µM	OCC1O[C@@H](c2ccnn2-c2cc(Br)ccc2C(F)(F)F)C(O)C(n2cc(-c3nc(Cl)cs3)nn2)[C@H]1O (stereo partly drawn) [Example 19, 5-Bromo-1-{5-{3-[4-(4-chlorothiazol-2-yl)-1H-1,2,3-triazol-1-yl]-3-deoxy-β-D-galactopyranosyl}-1H-1,2-pyrazol-1-yl}-2-(trifluoromethyl)benzene]
0.031 µM	0.41 µM	COC1C(n2cc(-c3nc(Cl)cs3)nn2)[C@@H](O)C(CO)O[C@H]1c1ccnn1-c1cc(Br)ccc1C(F)(F)F (stereo partly drawn) [Example 20, 5-Bromo-1-{5-{3-[4-(4-chlorothiazol-2-yl)-1H-1,2,3-triazol-1-yl]-3-deoxy-2-O-methyl-β-D-galactopyranosyl}-1H-1,2-pyrazol-1-yl}-2-(trifluoromethyl)benzene]
0.035 µM	1.1 µM	COC1C(n2cc(-c3nc(Cl)cs3)nn2)[C@@H](O)C(CO)O[C@H]1c1ccnn1-c1cc(Cl)c(Cl)cc1C(F)(F)F (stereo partly drawn) [Example 21, 1-{5-{3-[4-(4-Chlorothiazol-2-yl)-1H-1,2,3-triazol-1-yl]-3-deoxy-2-O-methyl-β-D-galactopyranosyl}-1H-1,2-pyrazol-1-yl}-4,5-dichloro-2-(trifluoromethyl)benzene]
0.043 µM	0.85 µM	COC1C(n2cc(-c3nc(Cl)cs3)nn2)[C@@H](O)C(CO)O[C@H]1c1ccnn1-c1cc(Cl)c(F)cc1C(F)(F)F (stereo partly drawn) [Example 22, 1-{5-{3-[4-(4-Chlorothiazol-2-yl)-1H-1,2,3-triazol-1-yl]-3-deoxy-2-O-methyl-β-D-galactopyranosyl}-1H-1,2-pyrazol-1-yl}-5-chloro-4-fluoro-2-(trifluoromethyl)benzene]
0.024 µM	0.29 µM	COC1[C@@H](n2cc(-c3nc(Cl)cs3)nn2)[C@@H](O)C(CO)O[C@H]1c1ccnn1-c1cc(Br)c(F)cc1C(F)(F)F (stereo partly drawn) [Example 23, 5-Bromo-1-{5-{3-[4-(4-chlorothiazol-2-yl)-1H-1,2,3-triazol-1-yl]-3-deoxy-2-O-methyl-β-D-galactopyranosyl}-1H-1,2-pyrazol-1-yl}-4-fluoro-2-(trifluoromethyl)benzene]
